Assays:
Type in all cases: cell-based, Human
[1] = test system: UACC-257; test: NCI antiproliferative SRB assay, Melanoma panel
[2] = test system: RXF 393; test: NCI antiproliferative SRB assay, Renal Cancer panel
[3] = test system: CNS Cancer cell line panel; test: NCI antiproliferative assay, panel summary
[4] = test system: M14; test: NCI antiproliferative SRB assay, Melanoma panel
[5] = test system: OVCAR-8; test: NCI antiproliferative SRB assay, Ovarian Cancer panel
[6] = test system: NCI-H226; test: NCI antiproliferative SRB assay, Non-Small Cell Lung Cancer panel
[7] = test system: MDA-MB-468; test: NCI antiproliferative SRB assay, Breast Cancer panel
Protocol: The antiproliferative activity of tested compounds was done against five dozen (60) cancer cell lines derived from nine different panels. All of the compounds were evaluated for antiproliferative activity in a single dose at 10 µM. Growth percent (GP) and percent growth inhibition (% GI) were used to calculate antiproliferative activity. […] The antiproliferative results of five-dose assay were calculated as three dose related parameters like, 50% growth inhibition (GI50), 50% lethal concentration (LC50), and total growth inhibition TGI [43, 44, 45, 46, 47].
Human tumor cell lines were grown in RPMI 1640 medium containing 5% fetal bovine serum and 2 mM L-glutamine. For a typical screening experiment, cells were inoculated into 96-well microtiter plates in 100 µL at plating densities ranging from 5000 to 40,000 cells/well, depending on the doubling time of individual cell lines. Two plates of each cell line were fixed in situ with trichloroacetic acid (TCA) after 24 h to represent a cell population measurement for each cell line at the time of drug addition (Ti). The experimental drugs were frozen after being solubilized in dimethyl sulfoxide at 400-fold the desired final maximum test concentration. An aliquot of frozen concentrate was thawed and diluted to twice the desired final maximum test concentration with medium containing 50 µg/mL gentamicin at the time of drug addition. Additional four, 10-fold, or ½ log serial dilutions serial dilutions were performed to provide a total of five drug concentrations plus the control. Aliquots of 100 µL of these different drug dilutions were added to the appropriate microtiter wells already containing 100 µL of medium, resulting in the required final drug concentrations. Following drug addition, the plates are incubated for an additional 48 h at 37 °C, 5% CO2, 95% air, and 100% relative humidity. For adherent cells, the assay is terminated by the addition of cold TCA. Cells are fixed in situ by the gentle addition of 50 µL of cold 50% (w/v) TCA (final concentration, 10% TCA) and incubated for 60 min at 4 °C. The supernatant is discarded, and the plates are washed five times with tap water and air dried. Sulforhodamine B (SRB) solution (100 µL) at 0.4% (w/v) in 1% acetic acid was added to each well, and plates were incubated for 10 min at room temperature. After staining, unbound dye was removed by washing five times with 1% acetic acid and the plates were air dried. Bound stain was subsequently solubilized with 10 mM trizma base, and the absorbance was read on an automated plate reader at a wavelength of 515 nm. For suspension cells, the methodology was the same except that the assay was terminated by fixing settled cells at the bottom of the wells by gently adding 50 µL of 80% TCA (final concentration, 16% TCA). […]
Antiproliferative activity
The anticancer screening was carried ou t as per the NCI US protocol. Using the seven absorbance measurements (time zero, (Ti), control growth, (C), and test growth in the presence of drug at the five concentration levels (Tf)), the percentage growth was calculated at each of the drug concentrations level as [( Tf−Ti × 100 for concentrations for which Tf ≥ Ti, and Tf−Ti × 100 for […]
concentrations for which Tf < Ti.
Three-dose response parameters (GI50, TGI, and LC50) were calculated for each of the experimental agents. Growth inhibition of 50% (GI50) was calculated from 100 × Tf−Ti = 50, , which was […]
the drug concentration resulting in a 50% reduction in the net protein increase (as measured by sulforhodamine B, SRB staining) in control cells during the drug incubation. The total growth inhibition (TGI) was calculated from Tf = Ti, which was the drug concentration resulting in total growth inhibition and signified the cytostatic effect. The LC50 was calculated from 100 × Tf−Ti = −50, , indicating a net loss […]
of cells following treatment which indicated the concentration of drug resulting in a 50% reduction in the […]

[8] = test system: KM12; test: NCI antiproliferative SRB assay, Colon Cancer panel
[9] = test system: HCT-116; test: as above
[10] = test system: HOP-62; test: NCI antiproliferative SRB assay, Non-Small Cell Lung Cancer panel
[11] = test system: BT-549; test: NCI antiproliferative SRB assay, Breast Cancer panel
[12] = test system: RPMI-8226; test: NCI antiproliferative SRB assay, Leukemia panel
[13] = test system: SF-539; test: NCI antiproliferative SRB assay, CNS Cancer panel
[14] = test system: COLO 205; test: NCI antiproliferative SRB assay, Colon Cancer panel
[15] = test system: 786–0; test: NCI antiproliferative SRB assay, Renal Cancer panel
[16] = Homo sapiens, 5-dose 0.01-100 µM
[17] = Homo sapiens, 5-dose 0.01-100 µM, read-out: LC50 (the source's name)

In the case of `COc1ccc(NC(=O)n2nc(/C=C/c3ccc(O)c(OC)c3)cc2/C=C/c2ccc(O)c(OC)c2)cc1` [3b], the TGI ([1]; 5-dose 0.01-100 µM) is reported as 64.8 µM, the GI50 [1, 16] is reported as 16.7 µM and the CC50 [1, 17] is reported as > 100 µM. The “%GI” value ([1]; one dose 10 µM) was 24.78%, the “GP (growth percent)” value ([1]; one dose 10 µM) was 75.22 and the TGI ([2]; 5-dose 0.01-100 µM) was 8.87 µM. The GI50 [2, 16] was 3.02 µM, the CC50 [2, 17] was > 100 µM and the “%GI” value ([2]; one dose 10 µM) was 76.99%. The “GP (growth percent)” value ([2]; one dose 10 µM) was 23.01, the “Mean % GI” value ([3]; 10 µM) was 67.06% and the “Selectivity Ratio (MID a:MID b)” value ([3]; 5-dose assay) was 1.28. The GI50 ([3]; Homo sapiens, 5-dose assay, read-out: Sub Panel MID b (mean GI50 of panel)) was 3.83 µM, the TGI ([4]; 5-dose 0.01-100 µM) was 41.5 µM and the GI50 [4, 16] was 3.15 µM. The CC50 [4, 17] was > 100 µM, the “%GI” value ([4]; one dose 10 µM) was 95.03% and the “GP (growth percent)” value ([4]; one dose 10 µM) was 4.97. For the same compound, the TGI ([5]; 5-dose 0.01-100 µM) was 59.9 µM, the GI50 [5, 16] was 5.32 µM and the CC50 [5, 17] was > 100 µM. The “%GI” value ([5]; one dose 10 µM) was 67.21%, the “GP (growth percent)” value ([5]; one dose 10 µM) was 32.79 and the TGI ([6]; 5-dose 0.01-100 µM) was 78.6 µM. The GI50 [6, 16] was 10.7 µM, the CC50 [6, 17] was > 100 µM and the “%GI” value ([6]; one dose 10 µM) was 12.85%. For the same compound, the “GP (growth percent)” value ([6]; one dose 10 µM) was 87.15, the LC50 (50% lethal concentration) ([7]; Homo sapiens, MDA-MB-468, read-out: LC50) was > 100 µM and the GI50 ([7]; Homo sapiens, MDA-MB-468, 5-dose 0.01-100 µM) was 3.55 µM. The TGI ([7]; MDA-MB-468, 5-dose 0.01-100 µM) was 21.6 µM, the “%GI” value ([7]; MDA-MB-468, one dose 10 µM) was 65.32% and the “GP (growth percent)” value ([7]; MDA-MB-468, one dose 10 µM) was 34.68. For the same compound, the TGI ([8]; 5-dose 0.01-100 µM) was 20.7 µM, the GI50 [8, 16] was 3.19 µM and the CC50 [8, 17] was > 100 µM. The “%GI” value ([8]; one dose 10 µM) was 82.11%, the “GP (growth percent)” value ([8]; one dose 10 µM) was 17.89 and the TGI ([9]; 5-dose 0.01-100 µM) was 42.9 µM. The GI50 [9, 16] was 3.22 µM, the CC50 [9, 17] was > 100 µM and the “%GI” value ([9]; one dose 10 µM) was 90.87%. For the same compound, the “GP (growth percent)” value ([9]; one dose 10 µM) was 9.13, the TGI ([10]; 5-dose 0.01-100 µM) was 42.8 µM and the GI50 [10, 16] was 3.65 µM. The CC50 [10, 17] was > 100 µM, the “%GI” value ([10]; one dose 10 µM) was 67.25% and the “GP (growth percent)” value ([10]; one dose 10 µM) was 32.75. The TGI ([11]; 5-dose 0.01-100 µM) was 29.5 µM, the GI50 [11, 16] was 2.49 µM and the CC50 [11, 17] was > 100 µM. For the same compound, the “%GI” value ([11]; one dose 10 µM) was 68.63%, the “GP (growth percent)” value ([11]; one dose 10 µM) was 31.37 and the TGI ([12]; 5-dose 0.01-100 µM) was 29.2 µM. The GI50 [12, 16] was 3.38 µM, the CC50 [12, 17] was > 100 µM and the “%GI” value ([12]; one dose 10 µM) was 78.70%. For the same compound, the “GP (growth percent)” value ([12]; one dose 10 µM) was 21.30, the TGI ([13]; 5-dose 0.01-100 µM) was 13.6 µM and the GI50 [13, 16] was 2.35 µM. The CC50 [13, 17] was > 100 µM, the “%GI” value ([13]; one dose 10 µM) was 93.28% and the “GP (growth percent)” value ([13]; one dose 10 µM) was 6.72. For the same compound, the TGI ([14]; 5-dose 0.01-100 µM) was 44.3 µM, the GI50 [14, 16] was 16.2 µM and the CC50 [14, 17] was > 100 µM. The “%GI” value ([14]; one dose 10 µM) was −6.58%, the “GP (growth percent)” value ([14]; one dose 10 µM) was 106.58 and the TGI ([15]; 5-dose 0.01-100 µM) was 24.3 µM. The GI50 [15, 16] was 4 µM, the CC50 [15, 17] was > 100 µM and the “%GI” value ([15]; one dose 10 µM) was 67.92%. The “GP (growth percent)” value ([15]; one dose 10 µM) was 32.08.
